The values below come from patent publication US8822754B2, “Ecdysone receptor-based inducible gene expression system” (Intrexon Corporation, priority 2000, dated 2014).

What all share (type): cell-based, Choristoneura fumiferana
Test [1] has as its system GAL4EcR + VP16RXR. Put plainly: Transactivation of reporter genes through switch 1.1 in CHO cells. As to conditions: switch 1.1 GAL4EcR + VP16RXR, pGAL4RELuc. The protocol:
The cells were harvested and reporter activity was assayed.
(§1) Cells were harvested 24-48 hr after adding ligands. […] Twenty μl of lysate was assayed.
Background: In a reporter assay the amount or activity of a reporter protein is the signal.

Test [2] concerns GAL4EcR + VP16USP. The test is described as follows: Transactivation of reporter genes through switch 1.2 in 3T3 cells. As to conditions: switch 1.2 GAL4EcR + VP16USP, pGAL4RELuc. The procedure: This construct was prepared in the same way as in switch 1.1 above except MmRXRDEF was replaced with the D, E and F domains from spruce budworm USP (“CfUSPDEF”; SEQ ID NO: 58). The constructs used in this example are similar to those disclosed in U.S. Pat. No. 5,880,333 except that Choristoneura fumiferana USP rather than Drosophila melanogaster USP was utilized.
(§2) The cells were plated when they reached 50% confluency.
as §1

The subject of test [3] is VP16CfEcR. Put plainly: Transactivation of reporter genes through switch 1.7 in 3T3 cells. Particulars: switch 1.7 VP16CfEcR, pEcRELuc. The procedure:
(§3) Six ecdysone response elements (“EcRE”; SEQ ID NO: 59) from the hsp27 gene were placed upstream of the promoter and a luciferase gene (SEQ ID NO: 57). This switch most probably uses endogenous RXR.
as §2, §1

The test system of test [4] is CfVgRXR + MmRXR. The test is described as follows: Transactivation of reporter genes through switch 1.9 in 3T3 cells. Particulars: switch 1.9 CfVgRXR + MmRXR, pIND(SP1)LacZ. The procedure:
This example was prepared in the same way as switch 1.8 except DinEcR was replaced with a truncated CfEcR comprising a partial A/B domain and the complete CDEF domains [SEQ ID NO: 62 (polynucleotide) and SEQ ID NO: 63 (polypeptide)].
as §2, §1

In test [5] the test system is CfVgRXR. Put plainly: Transactivation of reporter genes through switch 1.10 in 3T3 cells. Particulars: switch 1.10 CfVgRXR, pIND(SP1)LacZ. The procedure:
This example was prepared in the same way as switch 1.9 except MmRXR (SEQ ID NO: 53) was deleted.
as §2, §1

Test [6] relates to GAL4RXR + VP16CfEcR. Put plainly: Transactivation of reporter genes through switch 1.3 in 293 cells. Particulars: switch 1.3 GAL4RXR + VP16CfEcR, pGAL4RELuc. The procedure: (§4) The same procedures described for CHO were followed for 293 cells except that the cells were plated in biocoated plates to avoid clumping.
as §1

Test [7] relates to GAL4USP + VP16CfEcR. Put plainly: Transactivation of reporter genes through switch 1.5 in 293 cells. As to conditions: switch 1.5 GAL4USP + VP16CfEcR, pGAL4RELuc. The protocol:
This construct was prepared in the same way as switch 1.3 except MmRXRDEF was replaced with CfUSPDEF (SEQ ID NO: 58).
as §4, §1

Test [8] has as its system GAL4EcR + VP16RXR. The test is described as follows: Transactivation of reporter genes through switch 1.1 in CV1 cells. As to conditions: switch 1.1 GAL4EcR + VP16RXR, pGAL4RELuc. The procedure: (§5) The same procedures described for NIH3T3 cells were followed for CV1 cells
as §1

Test [9] has as its system VP16CfEcR. The test is described as follows: Transactivation of reporter genes through switch 1.7 in CV1 cells. As to conditions: switch 1.7 VP16CfEcR, pEcRELuc. The procedure: as §3, §5, §1
Test [10] has as its system CfEcR/RXR-based switch. Put plainly: Luciferase reporter assay of truncated CfEcR and MmRXR receptor pairs in NIH3T3 cells (Example 2). As to conditions: NIH3T3 cells, 0, 1, 5 or 25 uM ligand, 48 hr; FIGS. 11-14. The procedure: Briefly, polynucleotides encoding EcR or RXR receptors were truncated at the junctions of A/B, C, D, E and F domains and fused to either a GAL4 DNA binding domain encoding polynucleotide (SEQ ID NO: 41) for CfEcR, or a VP16 activation domain encoding polynucleotide (SEQ ID NO: 45) for MmRXR as described in Example 1. The resulting receptor truncation/fusion polypeptides were assayed in NIH3T3 cells. Plasmid pFRLUC (Stratagene) encoding a luciferase polypeptide was used as a reporter gene construct and pTKRL (Promega) encoding a Renilla luciferase polypeptide under the control of the constitutive TK promoter was used to normalize the transfections as described above. The analysis was performed in triplicates and mean luciferase counts were determined as described above.
Gene expression cassettes comprising polynucleotides encoding either full length or truncated CfEcR polypeptides fused to a GALA. […] The cells were harvested, lysed and luciferase reporter activity was measured in the cell lysates. […]

The test system of test [11] is CfEcR. Put plainly: Comparison of switches in the mammalian cell lines tested (Tables 1-4). As to conditions: see Tables 1-4. The protocol: Several commercially available lipofactors as well as electroporation methods were evaluated and the best conditions for transfection of each cell line were developed. CHO, NIH3T3, 293 and CV1 cells were grown to 60% confluency. DNAs corresponding, to the various switch constructs outlined in Examples 1.1 through 1.10 were transfected into CHO cells, NIH3T3 cells, 293 cells, or CV1 cells as follows.
as §1

In the case of `CCc1c(OC)cccc1C(=O)NN(C(=O)c1cc(C)cc(C)c1)C(C)(C)C` [N-(2-ethyl-3-methoxybenzoyl)-N′-(3,5-dimethylbenzoyl)-N′-tert-butylhydrazine], in test [1], the “Mean Fold Activation with 50 μM N-(2-ethyl-3-methoxybenzoyl)-N′-(3,5-dimethylbenzoyl)-N′-t-butylhydrazine” value is 267 fold. Besides, the “Mean Fold Activation Through N-(2-ethyl-3-methoxybenzoyl)-N′-(3,5-dimethylbenzoyl)-N′-t-butylhydrazine” value in test [2] is reported as 2 fold; in [3], 1 fold; in test [4] it was 19 fold; in test [5], 2 fold; in test [6], 17 fold; in [7], 2 fold. The “Mean Fold Activation Through N-(2-ethyl-3-methoxybenzoyl)-N′-(3,5-dimethylbenzoyl)-N′-t-butylhydrazine” value came to 279 fold in test [8] and 1 fold in test [9]. The “sensitivity of the EcR/RXR switch to the ligand” value in [10] is “much more sensitive”. For the same molecule, the “potency as activators of CfEcR as compared to DmEcR” value in test [11] is “more potent activators of CfEcR”.
